Experimental data: patent publication US6852686B2, “Methods for ameliorating icthyosiform skin diseases” (The United States of America as represented by the …, priority 1999, dated 2005)
Entries after “also recorded” stand apart in the source; their conditions may differ.

Assays:
TGase 1 = molecular target: T1, TGase 1 (Homo sapiens, UniProt P22735); experiment: Lipid Z esterification of involucrin by TGase 1 on SLV; assay type: biochemical; settings: for involucrin-lipid adduct formation by TGase 1 on SLV membranes: ceramide incorporated in SLV
T1 construct: Recombinant full-length human TGase 1 and TGase 3 enzymes were expressed in Sf9 cells by the BaculoGold system; made in house; host or cells: Sf9 insect cells, BaculoGold baculovirus system, pVL1392 vector
T1 sequence (P22735 1-817): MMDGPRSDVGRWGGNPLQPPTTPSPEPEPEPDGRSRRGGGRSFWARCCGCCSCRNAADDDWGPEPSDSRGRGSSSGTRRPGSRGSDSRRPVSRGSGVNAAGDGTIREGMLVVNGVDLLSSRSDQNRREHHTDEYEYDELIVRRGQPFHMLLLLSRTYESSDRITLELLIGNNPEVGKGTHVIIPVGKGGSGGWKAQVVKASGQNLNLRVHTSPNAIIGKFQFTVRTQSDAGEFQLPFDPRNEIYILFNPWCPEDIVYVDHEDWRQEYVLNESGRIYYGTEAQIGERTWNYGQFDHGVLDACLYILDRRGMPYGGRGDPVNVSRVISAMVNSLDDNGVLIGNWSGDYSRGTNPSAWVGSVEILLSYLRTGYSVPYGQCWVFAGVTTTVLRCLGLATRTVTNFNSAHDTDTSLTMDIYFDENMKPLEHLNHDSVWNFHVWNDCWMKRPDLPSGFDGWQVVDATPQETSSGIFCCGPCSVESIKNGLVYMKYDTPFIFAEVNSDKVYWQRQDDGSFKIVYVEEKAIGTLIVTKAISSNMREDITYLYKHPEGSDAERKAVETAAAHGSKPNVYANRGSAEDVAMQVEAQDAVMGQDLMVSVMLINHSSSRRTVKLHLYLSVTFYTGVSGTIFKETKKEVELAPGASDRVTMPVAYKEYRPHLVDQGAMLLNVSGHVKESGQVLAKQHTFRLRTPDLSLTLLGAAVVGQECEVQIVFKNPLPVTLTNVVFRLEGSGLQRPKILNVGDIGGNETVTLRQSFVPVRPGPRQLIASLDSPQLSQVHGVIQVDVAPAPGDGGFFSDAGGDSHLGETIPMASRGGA
Description: A mixture of 54 mol % dimyristoyl-phosphatidylcholine, 15 mol % dipalmitoyl-phosphatidylserine, 30 mol % cholesterol (all from Sigma, St. Louis, Mo.) and 1 mol % lipid Z was made in chloroform: methanol (9:1). This solution was dried down, taken up in aqueous buffer and dispersed by sonication as before (Nemes et al., J. Biol. Chem., 274: in press (1999)). The SLV suspension was equipped with TGase 1 enzyme by incubation at 37° C. for 15 min prior to adding substrates.
The reactions were stopped by the addition of EDTA to 10 mM.
Following reaction, 0.1 ml 20% SDS in water was added to the samples and the mixture was vortexed. This mixture was precipitated and washed three times with acetone-triethylamine-acetic acid (90:5:5) to remove the SDS and the unbound lipids (Konigsberg, W. H. and L. Henderson, Meth. Enzymol., 91: 254-259 (1983), herein expressly incorporated by reference in its entirety). After further washing with acetone the pellet was dried under vacuum and redissolved in 50 mM Tris-HCl (pH 7.5). Resolubilized protein was digested for 16 h with 2 mol % modified trypsin (Boehringer Mannheim). Peptides were resolved on a 250×2 mm PrimesphereC4 HPLC column (Phenomenex) and separated using a gradient elution from 75% buffer A (0.1% TFA in water) to 75% buffer B (50% 2-propanol in acetonitrile) in 40 min. Under these conditions, lipo-peptides were retarded but free peptides elute with the solvent front (Marekov, L. N. and P. M. Steinert, J. Biol. Chem., 273: 17763-17770 (1998), herein expressly incorporated by reference in its entirety).
Amino acid analysis of hydrolyzed samples (5.7 N HCl at 110° C. for 24 h in vacuo) was used to routinely measure amounts of lipo-peptides. Aliquots of isolated lipo-peptide peaks were attached to a solid support for sequencing (Marekov, L. N. and P. M. Steinert, J. Biol. Chem., 273: 17763-17770 (1998), herein expressly incorporated by reference in its entirety). Saponification of lipo-peptides was done with 1 N KOH in 80% methanol for 2 h at 37° C., after which the solution was acidified, dried and peptides were recovered by HPLC on a C18 column.

[1] = tested on: synthetic lipid vesicles (SLV); experiment: Membrane association (binding) to synthetic lipid vesicles, SLV pelleted by ultracentrifugation; settings: for effect on Ca++-induced binding of involucrin to SLVs: added to buffer, SLVs with 15 mol % PS; for effect on involucrin binding to SLV when substituted for PS: SLV containing 8% PS plus 0-20% of the anionic phospholipid; for binding to SLV: SLV with 0 or 15% PS, with or without free Ca++
Description: Mixtures of dipalmitoyl-phosphatidylcholine, cholesterol, dipalmitoyl-phosphatidylserine (PS) and other lipids where indicated (all from Sigma, St. Louis, Mo.) were made in chloroform-methanol (95:5). In all cases, the mixtures contained 30% cholesterol. When the amounts of PS or other individual components were varied, phosphatidylcholine was added to make the mixture to 100%. Mixtures were made in 0.5 ml and contained 10 μmol of total lipids. The solvent was flushed away under a stream of N2, dried further under high vacuum for 4 h and then resuspended by vortexing in 0.5 ml of a buffer containing 50 mM Tris-Cl (pH 8.0), 100 mM NaCl, 3 mM NaN3, 5 mM DTT, and 200 mM sucrose. The mixture was sonicated on ice five times each for 1 min using a Branson 250 sonifier with micro probe tip, and allowed to stand at 23° C. to facilitate assembly of SLV. After 1 h the SLV were diluted with 0.5 ml of the above buffer without sucrose, and 200 μl aliquots were centrifuged at 100,000× g for 30 min in a Beckman Airfuge using the A-10 rotor. The top 175 μl was removed, and the pellet resuspended in another 150 μl of sucrose-free buffer. The final stock concentration was 11 μmol/ml.
In all cases, the buffer contained 50 mM Tris-HCl (pH 8.0), 100 mM NaCl, 1 mM DTT, 3 mM NaN3, and other additives where noted. Some mixtures also contained 1 mM CaCl2 or 2 mM EDTA. After mixing, the samples were centrifuged for 45 min at 100,000× g, and the protein content from 50 μl of supernatant was determined by amino acid analysis after acid hydrolysis. Data were usually not corrected for loss of SLV lipids, as in control experiments, cumulated losses were <4% as assayed by ^14C-phosphatidylcholine tracer, and thus neglected from the calculations.
The Ca^++ concentrations in the μM range were set by buffering free Ca^++ with chelators The desired Ca^++/chelator ratios were calculated by the WinMaxC 1.7 computer program (Bers, et al., Methods in Cell Biology Vol 40: A Practical Guide to the Study of Ca^2+ in Living Cells, Nuccitelli, R., ed., pp. 1-327 (1994), herein expressly incorporated by reference in its entirety), and were made by adding the required amounts of 1 M CaCl2 to 0.2 M stock solutions of the following chelators at pH 8.0. Final chelator concentrations in the samples were 10 mM in all cases. Sodium citrate was the chelator for the 20-500 μM Ca^++ range; sodium nitrilotriacetate for the 1-20 μM Ca^++ range; and sodium 1,2-bis(aminophenoxy)ethane-N,N,N′,N′ tetraacetate for the 0.1-1 μM Ca^++ range.

16-hydroxypalmitoylsphingosine
involucrin-lipid adduct formation by TGase 1 on SLV membranes (TGase 1): no involucrin-adduct formation was observed

CCCCCCO [1-hexanol]
inhibition of formation of lipid Z ester (TGase 1; up to 2% 1-hexanol): did not significantly (p=0.05) inhibit

O=C(O)CN(CCN(CC(=O)O)CC(=O)O)CC(=O)O [EDTA]
inhibition of lipid Z esterification (TGase 1; EDTA present (5 mM elsewhere in the source)): no lipo-peptides were recovered; also recorded: completely inhibited
effect on Ca++-induced binding of involucrin to SLVs [1]: completely reversible

O=C(O)CN(CCOCCOCCN(CC(=O)O)CC(=O)O)CC(=O)O [EGTA, reference compound]
effect on Ca++-induced binding of involucrin to SLVs [1]: completely reversible

NCCCCN [Putrescine, putrescine]
inhibition of ester formation of each reactive Gln residue (TGase 1; 1 mM putrescine included in the reaction): 2-3 fold
reduction in ester yields (TGase 1; 20 mM putrescine added at 45 min, compared to 1 h levels): significantly (p<0.01) reduced; also recorded: about a two-fold and time dependent reduction

NCCSSCCN [cystamine]
inhibition of lipid Z esterification (TGase 1; 20 mM cystamine): significantly reduced; also recorded: completely inhibited

[Mg+2] [magnesium]
effect on Ca++-induced binding of involucrin to SLVs [1]: did not support the binding

palmitoylsphingosine
involucrin-lipid adduct formation by TGase 1 on SLV membranes (TGase 1): no involucrin-adduct formation was observed

phosphatidic acid [reference compound]
effect on involucrin binding to SLV when substituted for PS [1]: did not enhance binding

phosphatidyl glycerol [reference compound]
effect on involucrin binding to SLV when substituted for PS [1]: did not enhance binding

phosphatidyl inositol [reference compound]
effect on involucrin binding to SLV when substituted for PS [1]: did not enhance binding

B1: loricrin: recombinant human CE protein (protein, UniProt P23490 1-312, looked up)
Loricrin: MSYQKKQPTPQPPVDCVKTSGGGGGGGGSGGGGCGFFGGGGSGGGSSGSGCGYSGGGGYSGGGCGGGSSGGGGGGGIGGCGGGSGGSVKYSGGGGSSGGGSGCFSSGGGGSGCFSSGGGGSSGGGSGCFSSGGGGSSGGGSGCFSSGGGGFSGQAVQCQSYGGVSSGGSSGGGSGCFSSGGGGGSVCGYSGGGSGCGGGSSGGSGSGYVSSQQVTQTSCAPQPSYGGGSSGGGGSGGSGCFSSGGGGGSSGCGGGSSGIGSGCIISGGGSVCGGGSSGGGGGGSSVGGSGSGKGVPICHQTQQKQAPTWPSK
binding to SLV [1]: unable to directly attach to SLV

B2: TGase 3: recombinant full-length human TGase 3, activated with dispase (protein, UniProt Q08188 1-693, looked up)
chain: MAALGVQSINWQTAFNRQAHHTDKFSSQELILRRGQNFQVLMIMNKGLGSNERLEFIVSTGPYPSESAMTKAVFPLSNGSSGGWSAVLQASNGNTLTISISSPASAPIGRYTMALQIFSQGGISSVKLGTFILLFNPWLNVDSVFMGNHAEREEYVQEDAGIIFVGSTNRIGMIGWNFGQFEEDILSICLSILDRSLNFRRDAATDVASRNDPKYVGRVLSAMINSNDDNGVLAGNWSGTYTGGRDPRSWNGSVEILKNWKKSGFSPVRYGQCWVFAGTLNTALRSLGIPSRVITNFNSAHDTDRNLSVDVYYDPMGNPLDKGSDSVWNFHVWNEGWFVRSDLGPSYGGWQVLDATPQERSQGVFQCGPASVIGVREGDVQLNFDMPFIFAEVNADRITWLYDNTTGKQWKNSVNSHTIGRYISTKAVGSNARMDVTDKYKYPEGSDQERQVFQKALGKLKPNTPFAATSSMGLETEEQEPSIIGKLKVAGMLAVGKEVNLVLLLKNLSRDTKTVTVNMTAWTIIYNGTLVHEVWKDSATMSLDPEEEAEHPIKISYAQYEKYLKSDNMIRITAVCKVPDESEVVVERDIILDNPTLTLEVLNEARVRKPVNVQMLFSNPLDEPVRDCVLMVEGSGLLLGNLKIDVPTLGPKEGSRVRFDILPSRSGTKQLLADFSCNKFPAIKAMLSIDVAE
modifications: full-length activated by dispase cleavage
binding to SLV [1]: unable to associate with an SLV of any composition tested
